Experimental data taken from ChEMBL document CHEMBL1148125, “Total synthesis and bioactivity of some naturally occurring pterulones” (2002).

What was measured:
Format in all cases: functional
Rhodotorula glutinis [1] = assay: Antimicrobial activity against Rhodotorula glutinis ATCC 201718 assessed as relative growth at 50 ug/mL after 24 to 48 hrs relative to control
Saccharomyces cerevisiae [2] = assay: Antimicrobial activity against Saccharomyces cerevisiae CBS 1394 assessed as relative growth at 50 ug/mL after 24 to 48 hrs relative to control
Rhodotorula glutinis [3] = assay: Antimicrobial activity against Rhodotorula glutinis ATCC 201718 assessed as relative growth at 100 ug/mL after 24 to 48 hrs relative to control
Saccharomyces cerevisiae [4] = assay: Antimicrobial activity against Saccharomyces cerevisiae CBS 1394 assessed as relative growth at 100 ug/mL after 24 to 48 hrs relative to control

| SMILES | Activity (Rhodotorula glutinis [1]) [%] | Activity (Saccharomyces cerevisiae [2]) [%] | Activity (Rhodotorula glutinis [3]) [%] | Activity (Saccharomyces cerevisiae [4]) [%] |
| --- | --- | --- | --- | --- |
| CC(=O)c1ccc2c(c1)C=C/C(=C/Cl)CO2 | 58 | 91 | 40 | 84 |
| O=Cc1ccc2c(c1)C=C/C(=C/Cl)CO2 | 96 | 91 | 65 | 87 |
| OCc1ccc2c(c1)C=C/C(=C/Cl)CO2 | 5.5 | 89 | <1 | 1 |
